# Experimental data reported in US20190008152A1, “PLANT DISEASE CONTROL COMPOSITION AND PLANT DISEASE CONTROL METHOD” (SUMITOMO CHEMICAL COMPANY, LIMITED, priority 2015, published 2019).
# Assays:
# wheat leaf blight fungus = experiment: Test Example 3: growth of wheat leaf blight fungus in YBG medium, microtiter plate, absorbance at 550 nm; assay type: cell-based, Mycosphaerella graminicola; details: single use, 18° C., six days
# Experimental: The present compound 1-3 or the present compound 2-1 was dissolved into dimethyl sulfoxide such that each concentration of the present compound 1-3 or the present compound 2-1 was adjusted to one hundred fifty times as much as the concentration indicated in the below-mentioned Table 5. The resultant agent solution was dispensed into a microtiter plate (with 96 wells) in 1 μl portion thereof per well. One hundred forty nine (149) μl of YBG medium (which was prepared by dissolving 10 g of yeast extract, 10 g of Bacto Peptone, and 20 mL of glycerol into 1 L of water, followed by sterilizing the medium) was dispensed into the wells to which the agent solution(s) was/were dispensed. The plate was cultivated at 18° C. for six days, thereby allowing wheat leaf blight fungus to undergo proliferation, and the absorbance at 550 nm of each well of the micro titer plate was then measured to examine a degree of growth of the wheat leaf blight fungus (hereinafter referred to as “treated group”).
# Whereas, wheat leaf blight fungus was proliferated similarly to the case of the treated group except that dimethyl sulfoxide was used instead of the agent solution, and the degree of the growth was examined (hereinafter referred to as “untreated group”). The efficacy was calculated from the respective obtained degree of growth by the below-mentioned “Equation 1”.
# Efficacy (%)=100×(X−Y)/X Equation 1 […]
# [1] = test system: wheat rust fungus (Puccinia recondita); experiment: Test Example 4: foliar spray of flowable formulations on wheat, inoculation with wheat rust fungus, lesion area; assay type: in vivo, Puccinia recondita on wheat (cultivar. Shirogane); details: single use
# Experimental: Five (5) parts of the present compound 1-3, 35 parts of a mixture of white carbon and ammonium polyoxyethylene alkyl ether sulfate (the weight ratio of 1:1) and 55 parts of water were mixed, and the mixture was then finely-ground by a wet grinding method to obtain a flowable formulation comprising the present compound 1-3. Separately, the flowable formulation comprising the present compound 2-1 was prepared according to the above-mentioned similar method except that the present compound 2-1 was used instead of the present compound 1-3 to form a flowable formulation comprising the present compound 2-1.
# Each of the above-mentioned respective flowable formulations, and the flowable formulation comprising the present compound 1-3 and the present compound 2-1 that was prepared according to the above-mentioned Formulation Example 3 was diluted with water such that each concentration of the respective compounds in the dilution solutions was adjusted to that indicated in Table 6, to prepare the dilution solutions, respectively.
# A plastic pot was filled with soil, and thereto wheat (cultivar. Shirogane) was seeded, and the plants were grown in a greenhouse for ten days. […]
# From each of the lesion area of the treated group and the untreated group, respectively, the efficacy of the treated group was calculated by the below-mentioned Equation 2. […]
compound,measurement,setting,value
"Cc1cccc(-n2nnn(C)c2=O)c1COc1ccn(-c2ccc(Cl)cc2)n1 [Present compound 1-3, 1-(2-{[1-(4-chlorophenyl)-1H-pyrazol-3-yl]oxymethyl}-3-methylphenyl)-4-methyl-1,4-dihydrotetrazol-5-one]",Efficacy (%),wheat leaf blight fungus; concentration in medium 0.0001 ppm,20%
same,Efficacy (%),wheat leaf blight fungus; concentration in medium 0.01 ppm,37%
same,Efficacy (%),[1]; concentration 0.002 ppm,35%
same,Efficacy (%),[1]; concentration 0.01 ppm,70%
